{
  "source": "ChEMBL document CHEMBL3576762",
  "about": "“Ribifolin, an orbitide from Jatropha ribifolia, and its potential antimalarial activity” (J Nat Prod, 2015)",
  "key": {"Plasmodium falciparum": {"tested_on": "Plasmodium falciparum", "experiment": "Antimalarial activity against chloroquine-sensitive Plasmodium falciparum 3D7 infected in erythrocytes by Giemsa-stained blood smears under microscopy", "format": "functional, organism-based"}, "HEK-293T": {"tested_on": "HEK-293T", "experiment": "Cytotoxicity against human HEK293T cells at 0.001 to 100 uM after 48 hrs by MTT assay", "format": "cell-based"}},
  "note": "pIC50: −log10 of the molar value. Where a SMILES comes first, the peptide text is derived from it.",
  "data": [
    {"compound": "CC[C@H](C)[C@@H]1NC(=O)[C@H](C)NC(=O)[C@H](CC(C)C)NC(=O)[C@H]([C@@H](C)CC)NC(=O)[C@@H]2CCCN2C(=O)[C@H]([C@@H](C)CC)NC(=O)CNC(=O)[C@H](CCSC)NC1=O", "note": "(cyclo(AIMGIPIL))", "values": [
      {"measurement": "pIC50", "setting": "Plasmodium falciparum", "result": 5.05}
    ]},
    {"compound": "CC[C@H](C)[C@@H]1NC(=O)CNC(=O)[C@H](CC(C)C)NC(=O)[C@H]([C@@H](C)CC)NC(=O)[C@H]([C@@H](C)CC)NC(=O)[C@H](CO)NC(=O)CNC(=O)[C@H](CC(C)C)NC1=O", "note": "(cyclo(GILGSIIL))", "values": [
      {"measurement": "pIC50", "setting": "Plasmodium falciparum", "result": 4.38},
      {"measurement": "Activity", "setting": "HEK-293T", "result": "Non-toxic"}
    ]},
    {"compound": "H-ILGSIILG-OH", "values": [
      {"measurement": "pIC50", "setting": "Plasmodium falciparum", "result": 3.28},
      {"measurement": "Activity", "setting": "HEK-293T", "result": "Non-toxic"}
    ]},
    {"compound": "CC[C@H](C)[C@@H]1NC(=O)[C@H]([C@@H](C)O)NC(=O)CNC(=O)[C@H](Cc2ccccc2)NC(=O)[C@H](C(C)C)NC(=O)CNC(=O)[C@H](CC(C)C)NC1=O", "note": "(cyclo(FGTILGV))", "values": [
      {"measurement": "pIC50", "setting": "Plasmodium falciparum", "result": 4.80}
    ]},
    {"compound": "C[C@@H](O)[C@@H]1NC(=O)CNC(=O)[C@H](Cc2ccccc2)NC(=O)[C@H](Cc2ccccc2)NC(=O)CNC(=O)[C@H](Cc2ccccc2)NC(=O)[C@H](Cc2ccccc2)NC1=O", "note": "(cyclo(FFGFFGT))", "values": [
      {"measurement": "pIC50", "setting": "Plasmodium falciparum", "result": 5.70}
    ]},
    {"compound": "CC[C@H](C)[C@@H]1NC(=O)CNC(=O)[C@H](CC(C)C)NC(=O)[C@H](CC(C)C)NC(=O)[C@H]([C@@H](C)CC)NC(=O)[C@@H]2CCCN2C(=O)[C@H](CO)NC(=O)CNC(=O)[C@H](CC(C)C)NC1=O", "note": "(cyclo(GILGSPILL))", "values": [
      {"measurement": "pIC50", "setting": "Plasmodium falciparum", "result": 2.00}
    ]}
  ]
}
